Patent EP1285920A1, “C10 Ester sustituted taxanes as antitumor agents” (Florida State University Research Foundation, Inc., priority 2001, dated 2003)
Read-outs that look alike come from different tables or passages of the source.

How the values were obtained:
[1] = system: SK-MES carcinoma; assay: In vivo evaluation against SK-MES human lung carcinoma xenograft (i.v., Example 11); details: SK-MES
Experimental: Antitumor compounds were formulated for an i.v. dosing regime prepared in the following vehicle: 10% ethanol, 10% Cremophor and 80% isotonic saline.
Vehicle control animals were dosed twice intravenously with half the total volume being given separated by one hour. The study was terminated on Day 60.
A complete response is obtained if the tumor is not palpable at the end of the study.
A tumor scoring system was designed to provide a more quantitative ranking of efficacy (therapeutic potential) among the antitumor agents evaluated against the different human solid tumor xenografts. Each mouse in a study was given a score of from 1 to 10 at the end of the study. The scores can be summarized as follows:
The individual score for each mouse was averaged into a mean score for each treatment group. […]

[2] = system: A375 melanoma; details: for Complete Response / Partial Response / Stable Disease / Survivors / Toxic Deaths: number of mice; for Mean Score: tumor scoring system
Experimental: Dosing was initiated on Day 1. […] Taxotere was given i.v. on a qd x 1 schedule at a dose of 70 mg/kg. […] The study was terminated on Day 60. Treatment groups are detailed in Table 9.

[3] = system: VM46 colon carcinoma; details: for Mean Score: tumor scoring system
Experimental: Dosing was initiated on Day 1. […] Taxotere was given i.v. at a dose of 70 mg/kg on a qd x 1 schedule.

[4] = system: MX-1 carcinoma
Procedure, shortened: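 Mice dosed with a single i.v. bolus (qd x 1) at each compound's MTD, formulated in 5% ethanol, 5% Cremophor, 90% isotonic saline. Study ended Day 60; complete response = tumor not palpable at study end.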

[5] = system: HCT116; assay: In Vitro cytotoxicity measured by the cell colony formation assay; format: cell-based, human; details: Homo sapiens, HCT-116; read-out: IN VITRO ID 50 HCT116
Procedure, shortened: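 Four hundred cells per dish in McCoy's 5a medium with 10% FBS were allowed to attach for 5 h at 37 °C. They were then exposed to compound for 72 h at 37 °C, added as a 10× stock made fresh in medium. After HBSS rinsing and refeeding, colonies were counted after 7 days.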

[6] = Taxol i.p. qd x 5, 18 mg/kg daily, 6 mice
[7] = i.v. qd x 1 at estimated MTD (Taxol 24 mg/kg, Taxotere 70 mg/kg), 6 mice/group (Taxotere 7)
[8] = i.v. qd x 1 at estimated MTD (Taxol 24 mg/kg, Taxotere 70 mg/kg), 6 mice/group (Taxotere 7), Day 60
[9] = number of mice, Taxol 15 mg/kg i.p. qd x 5, 6 mice, Day 64
[10] = number of mice, i.v. qd x 1, mg/kg: Taxol 24, 0499 77, 0503 72.6, 0670 123.1, 0706 107.6, 0838 72.6, 0854 46.6, 0983 67.4, Taxotere 70, 6 mice/group, Day 64
[11] = MX-1, i.v. qd x 1, six mice per group

Structure (SMILES): CC(=O)O[C@H]1C(=O)[C@@]2(C)[C@H]([C@H](OC(=O)c3ccccc3)[C@]3(O)C[C@H](OC(=O)[C@H](O)[C@@H](NC(=O)c4ccccc4)c4ccccc4)C(C)=C1C3(C)C)[C@]1(OC(C)=O)CO[C@@H]1C[C@@H]2O [Taxol, paclitaxel, reference compound]
- Stable Disease ([1]; i.v. split dose qd x 1, tumor below 1.5 g at termination): 0
- Complete Response ([1]; i.v. split dose qd x 1, tumor not palpable at end of study): 0
- Partial Response ([1]; i.v. split dose qd x 1, tumor smaller than on Day 1): 0
- Mean Score ([1]; tumor score 1 to 10 per mouse, group mean): 1.3 ± 0.3
- toxicity ([2]; A375, Taxol i.p. 18 mg/kg qd x 5): highly toxic
- animals died of toxicity ([2]; A375, Taxol i.p. 18 mg/kg qd x 5, six animals): six
- survival extension compared to Group 1 controls ([2]; A375, i.v. qd x 1): 26%
- MDS ([2]; A375, i.v. qd x 1 (Taxol 24 mg/kg split; Taxotere 70 mg/kg), days until tumor 2.0 g, ended Day 60): 18.1 days
- MDS (n) ([2]; mean days of survival until neoplasm reached 2.0 g, i.v. qd x 1 at estimated MTD (Taxol 24 mg/kg, Taxotere 70 mg/kg), 6 mice/group (Taxotere 7), terminated Day 60): 18.1 ± 0.6 (4) days
- Complete Response [2, 6]: 0
- Partial Response [2, 6]: 0
- Stable Disease [2, 6]: 0
- Survivors [2, 6]: 0
- Toxic Deaths [2, 6]: 6
- Toxic Deaths [2, 7]: 2
- Complete Response [2, 8]: 0
- Partial Response [2, 8]: 0
- Stable Disease [2, 8]: 0
- Survivors [2, 8]: 0
- Mean Score [2, 6]: 0 ± 0
- Mean Score [2, 7]: 0.8 ± 0.3
- toxicity ([3]; VM46, Taxol i.p. 15 mg/kg qd x 5): excessively toxic
- mortalities ([3]; VM46, Taxol i.p. 15 mg/kg qd x 5, six treated animals): three
- partial responses ([3]; VM46, i.v. qd x 1 (compounds estimated MTD; Taxol 24 mg/kg split), six mice per group, ended Day 64): one
- Stable Disease ([3]; VM46, i.v. qd x 1, six mice per group): one
- MDS (n) ([3]; mean days of survival until neoplasm reached 1.5 g, Taxol 15 mg/kg i.p. qd x 5, 6 mice, terminated Day 64): 36.1 ± 12.2 (2) days
- Toxic Deaths ([3]; number of mice, Taxol 15 mg/kg i.p. qd x 5, 6 mice): 3
- Complete Response [3, 9]: 0
- Partial Response [3, 9]: 1
- Stable Disease [3, 9]: 0
- Survivors [3, 9]: 1
- Toxic Deaths ([3]; number of mice, i.v. qd x 1, mg/kg: Taxol 24, 0499 77, 0503 72.6, 0670 123.1, 0706 107.6, 0838 72.6, 0854 46.6, 0983 67.4, Taxotere 70, 6 mice/group): 0
- Complete Response [3, 10]: 0
- Partial Response [3, 10]: 1
- Stable Disease [3, 10]: 1
- Survivors [3, 10]: 2
- Mean Score ([3]; Taxol 15 mg/kg i.p. qd x 5, 6 mice): 1.8 ± 1.3
- Mean Score ([3]; i.v. qd x 1, mg/kg: Taxol 24, 0499 77, 0503 72.6, 0670 123.1, 0706 107.6, 0838 72.6, 0854 46.6, 0983 67.4, Taxotere 70, 6 mice/group): 3.8 ± 1.4
- MDS ([4]; MX-1, Taxol 36 mg/kg i.v. qd x 1, one animal, calculated, tumor 2.0 g): 27.8 days
- antitumor activity / tumor response ([4]; MX-1, i.v. qd x 1, Day 60): moderate anti-tumor activity
- Stable Disease [4, 11]: One
- Toxic Deaths [4, 11]: four
- Mean Score ([4]; i.v. qd x 1 at MTD, 6 mice/group, Day 60, doses as in E17): 1.2 ± 0.8
- tolerability ([4]; mouse, in vivo, iv): not well tolerated
- Stable Disease ([4]; number of 6 mice, tumor did not reach 2.0 g by end of study, i.v. qd x 1 at MTD, Day 60, doses as in E17): 1
- Complete Response ([4]; number of 6 mice, tumor not palpable at end of study, i.v. qd x 1 at MTD, Day 60, doses as in E17): 0
- Partial Response ([4]; number of 6 mice, tumor smaller than on Day 1, i.v. qd x 1 at MTD, Day 60, doses as in E17): 0
- Survivors ([4]; number of 6 mice, i.v. qd x 1 at MTD, Day 60, doses as in E17): 1
- Toxic Deaths ([4]; number of 6 mice, i.v. qd x 1 at MTD, Day 60, mg/kg: Taxol 36 (split dose), 0503 72.6, 0536 49, 0663 159, 0670 123, 0687 159, 0706 108, 0908 159, 0947 76.9, 0951 72.6, 0983 67.4, 0999 49, 1003 49, 1011 108): 0
- IC50 [5]: 2.1 nM
